Data from US8071507B2, “Plant growth regulating and fungicidal compositions” (Syngenta Crop Protection, Inc., priority 2005, dated 2011).

Experiments:
Format in all cases: in vivo
[1] = system: Triticale; assay: Plant growth regulation (PGR), pre-emergence, triticale; settings: 14 days
Description: (§1) The compounds are sprayed with a vertical boom sprayer at the mentioned rates (ref. result-tables) pre-plant on the bare soil, then they are incorporated into the soil and the plants are seeded.

[2] = system: Soybean; assay: Plant growth regulation (PGR), pre-emergence, soybean; settings: 14 days
Description: as §1

[3] = system: Winter rape “Colza d'hiver Aviso”; assay: Plant growth regulation (PGR), post-emergence, winter rape; settings: 14 days after application
Description: (§2) The plants are seeded and grown in a greenhouse until Growth Stage 12 (2 leafs unfolded). Then the compounds/mixture of the compounds are sprayed with a vertical boom sprayer top over the leafs.

[4] = system: Rye; assay: Plant growth regulation (PGR), pre-emergence, rye; settings: 14 days
Description: as §1

[5] = system: Barley; assay: Plant growth regulation (PGR), pre-emergence, barley; settings: 14 days
Description: as §1

[6] = system: Oilseed Rape; assay: Plant growth regulation (PGR), pre-emergence, oilseed rape; settings: 14 days
Description: as §1

[7] = system: Summer rape “Hybridol”; assay: Plant growth regulation (PGR), post-emergence, summer rape; settings: 14 days after application
Description: as §2

[8] = system: Wheat; assay: Plant growth regulation (PGR), pre-emergence, wheat; settings: 14 days
Description: as §1

[9] = system: Oat; assay: Plant growth regulation (PGR), pre-emergence, oat; settings: 14 days
Description: as §1

Measured: Observed PGR in % (% Cobs)

CC(C)(C)[C@@H](O)[C@@H](Cc1ccc(Cl)cc1)n1cncn1 (racemic) [Paclobutrazole, (2RS,3RS)-1-(4-chlorophenyl)-4,4-dimethyl-2-(1H-1,2,4-triazol-1-yl)-pentan-3-ol]
55%: [6]; Paclobutrazole 50 mg/L
23%: [7]; Paclobutrazole 62.5 g a.i./ha
33%: [3]; Paclobutrazole 62.5 g a.i./ha
25%: [4]; Paclobutrazole 25 mg/L | [8]; Paclobutrazole 25 mg/L
20%: [8]; Paclobutrazole 12.5 mg/L
40%: [4]; Paclobutrazole 50 mg/L | [6]; Paclobutrazole 12.5 mg/L | [8]; Paclobutrazole 50 mg/L | [9]; Paclobutrazole 50 mg/L
0%: [5]; Paclobutrazole 12.5 mg/L
50%: [2]; Paclobutrazole 50 mg/L | [6]; Paclobutrazole 25 mg/L
30%: [1]; Paclobutrazole 50 mg/L | [2]; Paclobutrazole 25 mg/L | [3]; Paclobutrazole 31.3 g a.i./ha | [5]; Paclobutrazole 50 mg/L | [9]; Paclobutrazole 25 mg/L
17%: [7]; Paclobutrazole 31.3 g a.i./ha
10%: [1]; Paclobutrazole 25 mg/L | [5]; Paclobutrazole 25 mg/L

CC1COC(Cn2cncn2)(c2ccc(Oc3ccc(Cl)cc3)cc2Cl)O1 (stereo not drawn) [Difenoconazole, 1-[2-[2-chloro-4-(4-chlorophenoxy)phenyl]-4-methyl-1,3-dioxolan-2-ylmethyl]-1H-1,2,4-triazole]
0%: [1]; Difenoconazole 50 mg/L | [1]; Difenoconazole 100 mg/L | [2]; Difenoconazole 50 mg/L | [2]; Difenoconazole 100 mg/L | [3]; Difenoconazole 62.5 g a.i./ha | [3]; Difenoconazole 125 g a.i./ha | [4]; Difenoconazole 50 mg/L | [4]; Difenoconazole 100 mg/L | [5]; Difenoconazole 25 mg/L | [5]; Difenoconazole 50 mg/L | [5]; Difenoconazole 100 mg/L | [6]; Difenoconazole 25 mg/L | [6]; Difenoconazole 50 mg/L | [6]; Difenoconazole 100 mg/L | [7]; Difenoconazole 62.5 g a.i./ha | [7]; Difenoconazole 125 g a.i./ha | [8]; Difenoconazole 25 mg/L | [8]; Difenoconazole 50 mg/L | [8]; Difenoconazole 100 mg/L | [9]; Difenoconazole 50 mg/L | [9]; Difenoconazole 100 mg/L
